Data on 26 compounds can be found in patent US9708334B2, “Substituted 2,4,5,6-tetrahydropyrrolo[3,4-c]pyrazole and 4,5,6,7-tetrahydro-2H-pyrazolo[4,3-c]pyridine compounds as GlyT1 inhibitors” (DART NEUROSCIENCE (CAYMAN) LTD., priority 2014, dated 2017).

Bounds are passed on as bounds.

The assay has as its target T1, GlyT1 (Homo sapiens, UniProt P48067).
T1 construct: expressed in transfected cells
T1 sequence (P48067 1-706): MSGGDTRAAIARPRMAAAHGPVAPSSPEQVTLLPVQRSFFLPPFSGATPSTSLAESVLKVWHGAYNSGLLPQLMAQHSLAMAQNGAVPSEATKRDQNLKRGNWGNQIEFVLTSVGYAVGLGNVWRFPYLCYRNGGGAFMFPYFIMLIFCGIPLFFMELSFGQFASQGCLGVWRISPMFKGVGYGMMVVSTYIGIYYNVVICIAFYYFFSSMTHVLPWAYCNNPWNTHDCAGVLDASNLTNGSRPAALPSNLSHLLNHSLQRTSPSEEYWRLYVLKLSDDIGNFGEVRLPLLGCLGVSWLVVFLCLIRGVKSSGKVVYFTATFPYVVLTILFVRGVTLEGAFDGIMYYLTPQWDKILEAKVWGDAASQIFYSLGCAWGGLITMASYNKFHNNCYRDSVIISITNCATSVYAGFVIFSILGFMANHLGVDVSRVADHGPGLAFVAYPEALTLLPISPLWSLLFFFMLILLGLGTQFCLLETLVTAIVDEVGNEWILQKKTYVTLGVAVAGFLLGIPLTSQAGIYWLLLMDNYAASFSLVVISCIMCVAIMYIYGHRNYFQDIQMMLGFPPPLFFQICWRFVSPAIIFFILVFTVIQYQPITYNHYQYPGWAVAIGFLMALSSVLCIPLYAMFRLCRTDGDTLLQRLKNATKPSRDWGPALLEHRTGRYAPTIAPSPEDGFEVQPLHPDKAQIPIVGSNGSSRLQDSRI
Briefly: Glycine Transporter 1 (GlyT1) uptake assay, scintillation proximity assay of [14C]-glycine uptake. It counts as cell-based. The note with it: SPA, four parameter logistic fit, read-out: GlyT1 (pIC50) (converted). As to the method:
Glycine Transporter 1 (GlyT1) Uptake Assay
Plates were then read on a MicroBeta plate counter (Perkin Elmer). Dose-response data for tested compounds were analyzed and curves were fit using a four parameter logistic fit to determine IC50 values. […]
With `CC(C)Oc1cc(-n2cc3c(n2)CN(C(=O)c2cc(C#N)ccc2OC(C)C(F)(F)F)C3)ccn1` (stereo in doubt) [Example 372, 3-{2-[2-(Propan-2-yloxy)pyridin-4-yl]-2H 4H 5H 6H-pyrrolo[3,4-c]pyrazole-5-carbonyl}-4-{[(2S)-1 1 1-trifluoropropan-2-yl]oxy}benzonitrile], the IC50 was 100 to 1000 nM.
In the case of `CCC(C)Cn1cc2c(n1)CN(C(=O)c1cc(S(C)(=O)=O)ccc1N1CCC(F)(F)CC1)C2` (stereo in doubt) [Example 429, 4 4-Difluoro-1-(4-methanesulfonyl-2-{2-[(2S)-2-methylbutyl]-2H 4H 5H 6H-pyrrolo[3,4-c]pyrazole-5-carbonyl}phenyl)piperidine], the IC50 is below 100 nM.
As for `CC(C)Oc1ccc(S(C)(=O)=O)cc1C(=O)N1Cc2cn(-c3ccc(F)cc3)nc2C1` [Example 1, (2-(4-Fluorophenyl)pyrrolo[3,4-c]pyrazol-5(2H,4H,6H)-yl)(2-isopropoxy-5-(methylsulfonyl)phenyl)methanone], the IC50 is below 100 nM.
As to `CC(C)Oc1ccc(S(C)(=O)=O)cc1C(=O)N1Cc2cn(-c3ccc(F)c(F)c3)nc2C1` [Example 2, (2-(3,4-Difluorophenyl)pyrrolo[3,4-c]pyrazol-5(2H,4H,6H)-yl)(2-isopropoxy-5-(methylsulfonyl)phenyl)methanone], the IC50 was below 100 nM.
Take `Cc1cc(-n2cc3c(n2)CN(C(=O)c2cc(C#N)ccc2OCC(C)(C)C)C3)ccn1` [Example 3, 3-(2-(2-Methylpyridin-4-yl)-2,4,5,6-tetrahydropyrrolo[3,4-c]pyrazole-5-carbonyl)-4-(neopentyloxy)benzonitrile]: the IC50 is below 100 nM.
`COc1c(C#N)ccc(OC(C)C(F)(F)F)c1C(=O)N1CCc2nn(-c3ccc(F)cc3)cc2C1` (centres unmarked) [Example 4, 3-(2-(4-Fluorophenyl)-4,5,6,7-tetrahydro-2H-pyrazolo[4,3-c]pyridine-5-carbonyl)-2-methoxy-4-((1,1,1-trifluoropropan-2-yl)oxy)benzonitrile]: the IC50 was 100 to 1000 nM.
Turning to `CC(Oc1ccc(C(=O)O)c(Cl)c1C(=O)N1Cc2cn(-c3ccc(F)cc3)nc2C1)C(F)(F)F` (centres unmarked) [Example 5, 2-Chloro-3-(2-(4-fluorophenyl)-2,4,5,6-tetrahydropyrrolo[3,4-c]pyrazole-5-carbonyl)-4-((1,1,1-trifluoropropan-2-yl)oxy)benzoic acid], the IC50 was above 10000 nM.
With `CC(Oc1ccc(C(=O)N2CCC2)c(Cl)c1C(=O)N1CCc2nn(-c3ccc(F)cc3)cc2C1)C(F)(F)F` (centres unmarked) [Example 6, 1-{2-Chloro-3-[2-(4-fluorophenyl)-2H 4H 5H 6H 7H-pyrazolo[4,3-c]pyridine-5-carbonyl]-4-[(1 1 1-trifluoropropan-2-yl)oxy]benzoyl}azetidine], the IC50 is above 10000 nM.
For the compound `CC(Oc1ccc(C(N)=O)cc1C(=O)N1CCc2nn(-c3ccc(F)cc3)cc2C1)C(F)(F)F` (centres unmarked) [Example 7, 3-(2-(4-Fluorophenyl)-4,5,6,7-tetrahydro-2H-pyrazolo[4,3-c]pyridine-5-carbonyl)-4-((1,1,1-trifluoropropan-2-yl)oxy)benzamide], the IC50 was 1000 to 10000 nM.
Take `Cc1cc(-n2cc3c(n2)CN(C(=O)c2cc(C#N)ccc2-c2cccc(F)c2)C3)ccn1` [Example 8, 4-(3-Fluorophenyl)-3-[2-(2-methylpyridin-4-yl)-2H 4H 5H 6H-pyrrolo[3,4-c]pyrazole-5-carbonyl]benzonitrile]: the IC50 is below 100 nM.
Consider `CC(Oc1ccc(C#N)cc1C(=O)N1Cc2cn(-c3ccc(F)cc3)nc2C1)C(F)F` (centres unmarked) [Example 9, 4-((1,1-Difluoropropan-2-yl)oxy)-3-(2-(4-fluorophenyl)-2,4,5,6-tetrahydropyrrolo[3,4-c]pyrazole-5-carbonyl)benzonitrile], for which the IC50 is below 100 nM.
For `COc1c(C#N)ccc(CCC(C)(C)C)c1C(=O)N1Cc2cn(-c3ccc(F)cc3)nc2C1` [Example 10, 4-(3,3-Dimethylbutyl)-3-(2-(4-fluorophenyl)-2,4,5,6-tetrahydropyrrolo[3,4-c]pyrazole-5-carbonyl)-2-methoxybenzonitrile], the IC50 is 100 to 1000 nM.
The result for `COc1c(C#N)ccc(OC(C)C(F)F)c1C(=O)N1Cc2cn(-c3ccc(F)cc3)nc2C1` (centres unmarked) [Example 11, 4-[(1 1-Difluoropropan-2-yl)oxy]-3-[2-(4-fluorophenyl)-2H 4H 5H 6H-pyrrolo[3,4-c]pyrazole-5-carbonyl]-2-methoxybenzonitrile] reads below 100 nM; that for `COc1c(C#N)ccc(C2(F)CCC(F)(F)CC2)c1C(=O)N1CCc2nn(-c3ccc(F)cn3)cc2C1` [Example 12, 3-[2-(5-Fluoropyridin-2-yl)-2H 4H 5H 6H 7H-pyrazolo[4,3-c]pyridine-5-carbonyl]-2-methoxy-4-(1 4 4-trifluorocyclohexyl)benzonitrile], 100 to 1000 nM; that for `COc1c(C#N)ccc(C2(F)CCC(F)(F)CC2)c1C(=O)N1CCc2nn(-c3cccnc3)cc2C1` [Example 13, 2-Methoxy-3-[2-(pyridin-3-yl)-2H 4H 5H 6H 7H-pyrazolo[4,3-c]pyridine-5-carbonyl]-4-(1 4 4-trifluorocyclohexyl)benzonitrile], 1000 to 10000 nM.
Regarding `COc1c(C#N)ccc(C2(F)CCOCC2)c1C(=O)N1CCc2nn(-c3ccc(F)cn3)cc2C1` [Example 14, 4-(4-Fluorooxan-4-yl)-3-[2-(5-fluoropyridin-2-yl)-2H 4H 5H 6H 7H-pyrazolo[4,3-c]pyridine-5-carbonyl]-2-methoxybenzonitrile], the IC50 is 100 to 1000 nM.
The result for `COc1c(C#N)ccc(C2(F)CCC(F)(F)CC2)c1C(=O)N1Cc2cn(-c3ccc(F)cn3)nc2C1` [Example 15, 3-[2-(5-Fluoropyridin-2-yl)-2H 4H 5H 6H-pyrrolo[3,4-c]pyrazole-5-carbonyl]-2-methoxy-4-(1 4 4-trifluorocyclohexyl)benzonitrile] reads 100 to 1000 nM; that for `COc1cc(-n2cc3c(n2)CN(C(=O)c2c(O[C@@H](C)C(F)(F)F)ccc(C#N)c2Cl)C3)ccn1` [Example 16, 2-Chloro-3-[2-(2-methoxypyridin-4-yl)-2H 4H 5H 6H-pyrrolo[3,4-c]pyrazole-5-carbonyl]-4-{[(2S)-1 1 1-trifluoropropan-2-yl]oxy}benzonitrile], below 100 nM; that for `Cc1cc(-n2cc3c(n2)CN(C(=O)c2c(O[C@@H](C)C(F)(F)F)ccc(C#N)c2Cl)C3)ccn1` [Example 17, 2-Chloro-3-[2-(2-methylpyridin-4-yl)-2H 4H 5H 6H-pyrrolo[3,4-c]pyrazole-5-carbonyl]-4-{[(2S)-1 1 1-trifluoropropan-2-yl]oxy}benzonitrile], below 100 nM.
For the compound `COc1c(C#N)ccc(O[C@@H](C)C(F)(F)F)c1C(=O)N1Cc2cn(-c3ccnc(C)c3)nc2C1` [Example 18, 2-Methoxy-3-[2-(2-methylpyridin-4-yl)-2H 4H 5H 6H-pyrrolo[3,4-c]pyrazole-5-carbonyl]-4-{[(2S)-1 1 1-trifluoropropan-2-yl]oxy}benzonitrile], the IC50 is below 100 nM.
To `Cc1cccc(-n2cc3c(n2)CN(C(=O)c2c(O[C@@H](C)C(F)(F)F)ccc(C#N)c2Cl)C3)n1` [Example 19, 2-Chloro-3-[2-(6-methylpyridin-2-yl)-2H 4H 5H 6H-pyrrolo[3,4-c]pyrazole-5-carbonyl]-4-{[(2S)-1 1 1-trifluoropropan-2-yl]oxy}benzonitrile] belongs below 100 nM; to `COc1c(C#N)ccc(C2(F)CCC2)c1C(=O)N1Cc2cn(-c3cccc(C)n3)nc2C1` [Example 20, 4-(1-Fluorocyclobutyl)-2-methoxy-3-[2-(6-methylpyridin-2-yl)-2H 4H 5H 6H-pyrrolo[3,4-c]pyrazole-5-carbonyl]benzonitrile], 100 to 1000 nM; to `COc1c(C#N)ccc(C2(F)CCOCC2)c1C(=O)N1Cc2cn(-c3cccc(C)n3)nc2C1` [Example 21, 4-(4-Fluorooxan-4-yl)-2-methoxy-3-[2-(6-methylpyridin-2-yl)-2H 4H 5H 6H-pyrrolo[3,4-e]pyrazole-5-carbonyl]benzonitrile], 100 to 1000 nM.
On to `Cc1cccc(-n2cc3c(n2)CN(C(=O)c2c(OCC(F)(F)F)ccc(C#N)c2Cl)C3)n1` [Example 22, 2-Chloro-3-[2-(6-methylpyridin-2-yl)-2H 4H 5H 6H-pyrrolo[3,4-c]pyrazole-5-carbonyl]-4-(2 2 2-trifluoroethoxy)benzonitrile], for which the IC50 is 100 to 1000 nM.
As to `COc1c(C#N)ccc(C2(F)CCC2)c1C(=O)N1Cc2cn(-c3cncc(F)c3)nc2C1` [Example 23, 4-(1-Fluorocyclobutyl)-3-[2-(5-fluoropyridin-3-yl)-2H 4H 5H 6H-pyrrolo[3,4-c]pyrazole-5-carbonyl]-2-methoxybenzonitrile], the IC50 is 100 to 1000 nM.
`COc1c(C#N)ccc(C2(F)CCOCC2)c1C(=O)N1Cc2cn(-c3cncc(F)c3)nc2C1` [Example 24, 4-(4-Fluorooxan-4-yl)-3-[2-(5-fluoropyridin-3-yl)-2H 4H 5H 6H-pyrrolo[3,4-c]pyrazole-5-carbonyl]-2-methoxybenzonitrile]: the IC50 is 100 to 1000 nM.
